Data published in patent US9339564B2, “Ether and alkyl phospholipid compounds for treating cancer and imaging and detection of cancer” (Cellectar, Inc., priority 2009, dated 2016).

What was measured:
[1] = system: benign or premalignant lesions or inflammatory lesions; assay: Localization of CLR1404 in non-malignant lesions; format: in vivo; conditions: stated in contrast to 18F-FDG
Description: (§1) We have developed several series of tumor-selective radiolabeled ether and alkyl phospholipid compounds for imaging, characterization, and treatment of malignant tumors. […] Cellular signaling and regulation of phospholipids, including phospholipase-D and its isoforms, as well as Phosphatase and Tensin Homologue Deleted from Chromosome-10 (PTEN) and phosphatidylinositol phosphate (PIPn) pathways, are known to be directly involved in upstream regulation of many key oncogenic pathways. We now have strong evidence that the uptake and retention of our PLE analogs is due at least in part to these upstream regulation and signaling cancer cell pathways.

[2] = system: solid xenograft and spontaneous human tumor and rodent tumor models; assay: Tumor uptake and retention of CLR1404 in tumor models; format: in vivo; conditions: over fifty solid xenograft and spontaneous human tumor and rodent tumor models
Description: as §1

For `C[N+](C)(C)CCOP(=O)([O-])OCCCCCCCCCCCCCCCCCCc1ccc(I)cc1` [CLR1404, 18-(p-iodophenyl)octadecyl phosphocholine], the “localization in benign, premalignant or inflammatory lesions” value [1] was “does not localize in benign or premalignant lesions or in inflammatory lesions” and the “uptake and retention in tumors” value [2] was “striking uptake and prolonged selective retention properties”.
